Laboratory results reported in US20230365537A1, “POLO LIKE KINASE 4 INHIBITORS” (ORIC Pharmaceuticals, Inc., priority 2021, published 2023).

Experiments:
human recombinant PLK4 = human recombinant PLK4 (Homo sapiens (Human), UniProt O00444); assay: PLK4 Biochemical Assay (ADP-Glo); conditions: 0.5 nM PLK4, 8.0 µM ATP, 4.7 µM MBP, 6 hours at RT
In short: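 Recombinant human PLK4 (added at 1.0 nM) was preincubated 15 min at RT with compound in 50 mM HEPES pH 7.5, 10 mM MgCl2, 1 mM EGTA, 1 mM DTT, 0.01% Brij-35, 0.01% BSA. ADP formed was detected by ADP-Glo luminescence (40 min ATP depletion, 30 min detection). IC50 came from a four-parameter fit.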

[1] = molecular target: human recombinant Aurora B (Homo sapiens (Human), UniProt Q96GD4); assay: Aurora B Kinase Biochemical Assay (ADP-Glo); conditions: ratio of Aurora B IC50 to PLK4 IC50 (selectivity)
Sequence of human recombinant Aurora B (Q96GD4 whole entry): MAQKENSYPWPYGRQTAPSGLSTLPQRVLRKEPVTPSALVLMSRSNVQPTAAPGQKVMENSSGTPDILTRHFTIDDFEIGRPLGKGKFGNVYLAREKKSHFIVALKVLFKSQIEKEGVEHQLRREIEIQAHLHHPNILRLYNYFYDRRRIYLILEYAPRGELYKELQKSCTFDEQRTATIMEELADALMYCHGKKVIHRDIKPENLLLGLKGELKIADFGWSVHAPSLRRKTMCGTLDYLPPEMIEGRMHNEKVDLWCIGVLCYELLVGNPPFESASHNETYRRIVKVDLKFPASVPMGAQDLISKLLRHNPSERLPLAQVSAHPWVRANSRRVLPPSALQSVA
In short: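 Recombinant human Aurora B (20 nM in pH 7.5 HEPES buffer with MgCl2, EGTA, DTT, Brij-35, BSA) preincubated with compound 15 min at RT. ADP formed quantified by ADP-Glo luminescence after ATP depletion (40 min) and detection (30 min). IC50 from four-parameter non-linear regression.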

CHP-134 cells = assay: CHP134 CellTiter-Glo (CTG) Assay; format: cell-based; conditions: Homo sapiens, CHP-134, 120 h, 5 days, viable cells by CellTiter-Glo
In short: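 CHP-134 cells seeded at 200 cells/well for 16 h, then given nine 1:3 serial dilutions in quadruplicate at 37° C, 5% CO2. Viable cells measured by CellTiter-Glo luminescence after 5 days; IC50 calculated from curves.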

[2] = molecular target: human recombinant Aurora A (Homo sapiens (Human), UniProt O14965); assay: Aurora A Kinase Biochemical Assay (ADP-Glo); conditions: ratio of Aurora A IC50 to PLK4 IC50 (selectivity)
Sequence of human recombinant Aurora A (O14965 whole entry): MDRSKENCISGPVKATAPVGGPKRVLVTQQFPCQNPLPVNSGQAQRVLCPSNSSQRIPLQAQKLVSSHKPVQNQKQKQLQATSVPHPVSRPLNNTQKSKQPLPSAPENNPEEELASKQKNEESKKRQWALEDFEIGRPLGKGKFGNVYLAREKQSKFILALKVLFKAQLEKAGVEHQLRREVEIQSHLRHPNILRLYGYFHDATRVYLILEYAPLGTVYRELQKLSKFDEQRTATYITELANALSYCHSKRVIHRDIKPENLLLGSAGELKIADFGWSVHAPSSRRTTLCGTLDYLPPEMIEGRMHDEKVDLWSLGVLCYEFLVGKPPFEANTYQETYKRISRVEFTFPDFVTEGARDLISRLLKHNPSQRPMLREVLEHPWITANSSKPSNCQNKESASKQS

Sequence of human recombinant PLK4 (O00444 whole entry): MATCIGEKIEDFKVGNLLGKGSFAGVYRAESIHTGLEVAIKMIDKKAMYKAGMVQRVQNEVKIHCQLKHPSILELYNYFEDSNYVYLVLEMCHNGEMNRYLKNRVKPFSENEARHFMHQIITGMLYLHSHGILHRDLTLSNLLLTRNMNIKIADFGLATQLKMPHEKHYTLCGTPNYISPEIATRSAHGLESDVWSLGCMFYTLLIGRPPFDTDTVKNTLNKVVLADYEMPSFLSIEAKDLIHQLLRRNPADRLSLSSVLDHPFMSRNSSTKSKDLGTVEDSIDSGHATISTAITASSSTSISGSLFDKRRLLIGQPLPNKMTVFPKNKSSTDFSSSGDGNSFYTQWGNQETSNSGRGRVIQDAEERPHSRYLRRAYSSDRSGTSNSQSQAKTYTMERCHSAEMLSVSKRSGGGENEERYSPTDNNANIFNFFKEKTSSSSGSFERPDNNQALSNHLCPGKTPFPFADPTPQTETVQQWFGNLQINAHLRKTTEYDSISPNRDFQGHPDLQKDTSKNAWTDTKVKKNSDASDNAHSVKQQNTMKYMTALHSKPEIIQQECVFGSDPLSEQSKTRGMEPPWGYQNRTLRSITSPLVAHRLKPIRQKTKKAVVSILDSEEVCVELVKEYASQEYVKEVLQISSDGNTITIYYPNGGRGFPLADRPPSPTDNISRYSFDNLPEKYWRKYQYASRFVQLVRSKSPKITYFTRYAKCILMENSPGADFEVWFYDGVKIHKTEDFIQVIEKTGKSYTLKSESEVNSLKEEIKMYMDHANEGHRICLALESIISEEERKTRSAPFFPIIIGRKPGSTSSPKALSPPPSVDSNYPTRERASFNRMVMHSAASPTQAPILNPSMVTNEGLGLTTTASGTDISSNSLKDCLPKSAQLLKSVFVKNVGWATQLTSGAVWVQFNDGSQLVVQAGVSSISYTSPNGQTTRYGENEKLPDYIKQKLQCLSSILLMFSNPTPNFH

Row | SMILES | IC50 (human recombinant PLK4) [nM] | [Aurora B IC50 (nM)]/[PLK4 IC50 (nM)] [1] | IC50 (CHP-134 cells) [nM] | [Aurora A IC50 (nM)]/[PLK4 IC50 (nM)] [2]
1 | COc1ccc2c(c1)[C@]1(C[C@H]1c1ccc3c(Nc4ccc(C(=O)N(C)C)nc4OC)n[nH]c3c1)C(=O)N2 [Example 166, 6-methoxy-5-({6-[(1R,2S)-5′-methoxy-2′-oxo-1′,2′-dihydrospiro[cyclopropane-1,3′-indol]-2-yl]-1H-indazol-3-yl}amino)-N,N-dimethylpyridine-2-carboxamide] | 0.802 | 68.4539 | 80.6 | 1151.3716
2 | COc1ccc2c(c1)[C@]1(C[C@H]1c1ccc3c(Nc4nc(N5CCCC5)ncc4OC)n[nH]c3c1)C(=O)N2 [Example 167, (1R,2S)-5′-methoxy-2-(3-{[5-methoxy-2-(pyrrolidin-1-yl)pyrimidin-4-yl)amino}-1H-indazol-6-yl)spiro[cyclopropano-1,3′-indol]-2′(1′H)-one] | 1.18 | 916.9492 | 212 | 295.5932
3 | COc1ccc2c(c1)[C@]1(C[C@H]1c1ccc3c(Nc4nc(N5CC[C@@H](F)C5)ncc4OC)n[nH]c3c1)C(=O)N2 [Example 169] | 0.995 | 431.4573 | 188 | 666.9347
4 | COc1ccc2c(c1)[C@]1(C[C@H]1c1ccc3c(Nc4nc(N5CCC(F)(F)C5)ncc4OC)n[nH]c3c1)C(=O)N2 [Example 170, (1R,2S)-2-(3-{[2-(3,3-difluoropyrrolidin-1-yl)-5-methoxypyrimidin-4-yl]amino}-1H-indazol-6-yl)-5′-methoxyspiro[cyclopropane-1,3′-indol]-2′(1′H)-one] | 1.36 | 587.9234 | 326 | 694.1090
5 | COc1ccc2c(c1)[C@]1(C[C@H]1c1ccc3c(Nc4nc(Cl)nc5ccn(C)c45)n[nH]c3c1)C(=O)N2 [Example 171, (1R,2S)-2-{3-[(2-chloro-5-methyl-5H-pyrrolo[3,2-d]pyrimidin-4-yl)amino]-1H-indazol-6-yl}-5′-methoxyspiro[cyclopropane-1,3′-indol]-2′(1′H)-one] | 5.87 | 259.2403 | 1520 | 1176.6309
6 | COc1ccc2c(c1)[C@]1(C[C@H]1c1ccc3c(Nc4nc(C#N)ncc4OC)n[nH]c3c1)C(=O)N2 [Example 172, 5-methoxy-4-({6-[(1R,2S)-5′-methoxy-2′-oxo-1′,2′-dihydrospiro[cyclopropane-1,3′-indol]-2-yl]-1H-indazol-3-yl}amino)pyrimidine-2-carbonitrile] | 4.09 | 202.96 | 1260 | 324.94
7 | COc1ccc2c(c1)[C@]1(C[C@H]1c1ccc3c(Nc4nc(N5CC(F)(F)C5)ncc4OC)n[nH]c3c1)C(=O)N2 [Example 173, (1R,2S)-2-(3-([2-(3,3-difluoroazetidin-1-yl)-5-methoxypyrimidin-4-yl]amino}-1H-indazol-6-yl)-5′-methoxyspiro[cyclopropane-1,3′-indol]-2′(1 ‘H)-one] | 2.67 | 314.9287 | 332 | 301.0878
8 | COc1ccc2c(c1)[C@]1(C[C@H]1c1ccc3c(Nc4nc(N5CC(F)C5)ncc4OC)n[nH]c3c1)C(=O)N2 [Example 174, (1R,2S)-2-(3-{[2-(3-fluoroazetidin-1-yl)-5-methoxypyrimidin-4-yl]amino}-1H-indazol-6-yl)-5′-methoxyspiro[cyclopropane-1,3′-indol]-2′(1′H)-one] | 1.92 | 353.7741 | 392 | 365.8511
